{"source": "patent US20190032014A1", "about": "“USING MICROBIOTA METABOLITES TO DIFFERENTIATE NAÏVE T-CELLS AND RELATED METHODS TO INDUCE OR PREVENT INFLAMMATORY CONDITIONS” (THE TEXAS A&M UNIVERSITY SYSTEM, priority 2016, published 2019)", "key": {"[1]": {"test_system": "TGF-β receptor / pSMAD2/3", "experiment": "TGF-β receptor expression and SMAD2/3 activity", "assay_type": "cell-based", "experimental": "(§1) Indole and 5-HI were assessed for impact on TGF-β receptor expression and SMAD2/3 activity. […] Indole and 5-HI were also assessed for impact on IL-6 receptor levels and subsequent STAT3 activity."}, "CD4+ CD25− naïve T cells": {"test_system": "CD4+ CD25− naïve T cells", "experiment": "In vitro naïve T cell differentiation, Th2-skew (IL-4+)", "assay_type": "cell-based, C57BL/6 mice", "conditions": "Th2 skewing conditions; vs solvent control", "experimental": "When naïve CD4+ CD25− cells were cultured 72 hours in αCD3/28 coated wells with Th0-, Th1- or Th2-skew cytokines and indole or solvent control, followed by stimulation with PMA, Ionomycin and Golgi Plug for the last 5 hours of culture, no effect on the % of Th1 and Th2 cells was observed (in contrast to the significant effect that indole has on Treg and Th17 cells; see FIGS. 2A and 2B).\nCD4+ CD25− T cells were isolated to high purity (>98%) from the pooled spleen and mesenteric lymph nodes of C57BL/6 mice (Jackson Labs) with a BD FACS Aria II flow cytometer. Fc Block (BD), αCD4-efluor450 (eBioscience clone GK1.5) and αCD25-PECy7 (eBioscience clone PC61.5) antibodies were used for staining before sorting.\nFor Th1-skew: 5 ng/mL IL-12 (Peprotech cat. #210-12) and 10 µg/mL αIL-4 (BioXCell clone 11B11) were added to culture. For Th2-skew: 10 ng/mL IL-4 (Peprotech) and 10 μg/mL αIFN-γ (BioXCell clone R4-6A2) were added to culture. For Th17-skew: 10 ng/mL IL-6 (Peprotech), 5 ng/mL IL-23 (R&D), 0.5 ng/mL TGF-β (Peprotech), 10 μg/mL al-4 (BioXCell clone 11B11), and 10 μg/mL αIFN-γ (BioXCell clone R4-6A2) were added to culture. For Treg-skew: 2 ng/mL TGF-β (Peprotech) and 100 U/mL IL-2 (Roche) were added to culture. Sodium Propionate, sodium acetate, sodium butyrate and sodium chloride (all from Sigma-Aldrich) were solubilized in media and added to culture. […]"}, "[2]": {"target": "T1, aryl hydrocarbon receptor (AhR) (Homo sapiens, UniProt P35869)", "T1 sequence (P35869 11-848)": "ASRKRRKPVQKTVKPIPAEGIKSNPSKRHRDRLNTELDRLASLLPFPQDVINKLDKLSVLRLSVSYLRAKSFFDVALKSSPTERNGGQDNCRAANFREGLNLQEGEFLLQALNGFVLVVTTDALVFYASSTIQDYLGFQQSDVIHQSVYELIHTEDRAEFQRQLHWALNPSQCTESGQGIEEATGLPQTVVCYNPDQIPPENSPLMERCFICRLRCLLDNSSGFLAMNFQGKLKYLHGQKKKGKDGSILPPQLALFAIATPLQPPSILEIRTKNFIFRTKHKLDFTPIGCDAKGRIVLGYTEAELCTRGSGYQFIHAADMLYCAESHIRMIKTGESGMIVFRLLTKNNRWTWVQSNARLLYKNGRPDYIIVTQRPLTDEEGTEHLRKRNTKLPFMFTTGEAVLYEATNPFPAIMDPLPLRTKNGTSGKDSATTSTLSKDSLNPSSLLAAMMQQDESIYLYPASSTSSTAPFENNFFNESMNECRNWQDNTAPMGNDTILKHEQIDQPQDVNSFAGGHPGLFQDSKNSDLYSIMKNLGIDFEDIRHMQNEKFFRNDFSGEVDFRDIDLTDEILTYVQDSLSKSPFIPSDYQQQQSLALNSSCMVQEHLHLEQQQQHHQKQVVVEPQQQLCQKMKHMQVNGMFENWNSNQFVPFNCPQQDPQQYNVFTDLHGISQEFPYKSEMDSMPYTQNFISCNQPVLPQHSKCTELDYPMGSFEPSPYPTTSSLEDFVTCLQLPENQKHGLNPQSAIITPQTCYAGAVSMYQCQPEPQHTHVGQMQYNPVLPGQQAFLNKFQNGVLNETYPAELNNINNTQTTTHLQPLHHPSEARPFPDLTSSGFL", "conditions": "intestinal epithelial cells; Jin et al. 2014; cited from earlier work"}, "IL-6 receptor / pSTAT3": {"test_system": "IL-6 receptor / pSTAT3", "experiment": "IL-6 receptor levels and STAT3 activity", "assay_type": "cell-based", "conditions": "vs control", "experimental": "as §1"}, "[3]": {"test_system": "naïve T cells obtained from humans", "experiment": "Skewing of naïve T cells obtained from humans", "assay_type": "cell-based"}}, "note": "“Also recorded” adds a separate entry of the source. Read-outs that look alike come from different tables or passages of the source."}
{"smiles": "c1ccc2[nH]ccc2c1", "note": "[Indole, indole]", "values": [{"measurement": "% pSMAD2/3+ cells", "setting": "[1]; TGF-β induced, vs 5-HI or DMF control", "result": "higher"}, {"measurement": "% TGF-β receptor+ cells", "setting": "[1]; vs DMF control", "result": "significantly increase"}, {"measurement": "effect on % Th2 cells (IL-4+)", "setting": "CD4+ CD25− naïve T cells", "result": "no effect; also recorded: did not influence the development of Th1 and Th2 cells"}, {"measurement": "AhR agonist/antagonist activity", "setting": "[2]", "result": "acts as both an agonist and antagonist"}, {"measurement": "% IL-6 receptor+ cells", "setting": "IL-6 receptor / pSTAT3", "result": "decrease"}, {"measurement": "% pSTAT3+ cells / IL-6 induced stat3", "setting": "IL-6 receptor / pSTAT3", "result": "decrease"}, {"measurement": "FoxP3 expression", "setting": "iTregs; control (DMF induced) iTregs in the presence of indole, after TCR stimulation (αCD3/28), without indole 9.3%", "result": 26.1, "unit": "%"}, {"measurement": "FoxP3 expression", "setting": "iTregs; control (DMF induced) iTregs in the presence of indole, first value, before TCR stimulation", "result": 52.8, "unit": "%"}, {"measurement": "FoxP3 expression", "setting": "iTregs; indole-induced iTregs cultured three days with 1 mM indole, first value", "result": 64.2, "unit": "%"}, {"measurement": "FoxP3 expression", "setting": "iTregs; indole-induced iTregs cultured three days with 1 mM indole, second value, after TCR stimulation", "result": 52.2, "unit": "%"}, {"measurement": "FoxP3 expression", "setting": "iTregs; indole-induced iTregs cultured three days with DMF, first value", "result": 63, "unit": "%"}, {"measurement": "FoxP3 expression", "setting": "iTregs; indole-induced iTregs cultured three days with DMF, second value, after TCR stimulation", "result": 24.9, "unit": "%"}, {"measurement": "skewing effects on Tregs and Th17 cells in human cells", "setting": "[3]", "result": "recapitulated on naïve T cells obtained from humans"}]}
